Data as given in patent publication EP1914236A1 (Ortho-McNeil Pharmaceutical, Inc., priority 2002, dated 2003).
Where two headings read alike, the source gives them in different places.

How the values were obtained:
[1] = biological target: T1, human B2 bradykinin receptors (Homo sapiens, UniProt P30411); experiment: Bradykinin B2 (BK2) Receptor Binding Assay
T1 construct: purchased Receptor Biology, Inc. (Baltimore, MD); host or cells: CHO-K1 cells transfected with the human B2 receptor (membranes)
T1 sequence (P30411 1-391): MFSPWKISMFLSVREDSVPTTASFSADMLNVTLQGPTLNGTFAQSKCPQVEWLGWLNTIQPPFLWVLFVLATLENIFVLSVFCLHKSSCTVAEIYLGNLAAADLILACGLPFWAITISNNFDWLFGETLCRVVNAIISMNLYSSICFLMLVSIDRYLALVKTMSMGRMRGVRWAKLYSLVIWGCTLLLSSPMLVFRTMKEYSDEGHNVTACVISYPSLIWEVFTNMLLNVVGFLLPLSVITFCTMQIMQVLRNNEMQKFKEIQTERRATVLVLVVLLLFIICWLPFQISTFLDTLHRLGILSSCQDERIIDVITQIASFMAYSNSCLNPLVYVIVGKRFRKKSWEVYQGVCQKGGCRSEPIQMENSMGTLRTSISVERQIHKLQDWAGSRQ
Procedure, shortened: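 Membranes came from CHO-K1 cells expressing human B2 receptors; bound radioligand was collected by filtration and washed with cold 10 mM HEPES, pH 7.5. Single concentrations gave % inhibition of specific binding, and concentration ranges gave Ki values.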

[2] = Graded Abdominal Irritant Test (GrAIT); assay type: in vivo; conditions: for % Inhibition: 30 minutes before kaolin (100 mg/kg intraperitoneally), responses counted for 15 minutes, dose not given; for ED50: log dose regression analysis
Procedure: The Graded Abdominal Irritant Test (GrAIT) is a modification of the methods described by Koster et al. (Koster R., Anderson M and DeBeer E. J. Fed. Proc. 1959, 18, 412). Prior to the test (30 minutes for oral or subcutaneous administration), each animal was administered a known analgesic, a test compound, or vehicle (0.05N HCl) by one of two routes (oral or subcutaneous).
Kaolin (100 mg/kg) was injected intraperitoneally (using a standard 23G needle) at a volume of 10mL/kg of body weight. Following the administration of the chemical agent, the animals were placed in glass bell jars (approximately 15cm in diameter with wood chips on the bottom). […] A contraction of the abdominal musculature and an elongation of the body, which extends through to the hindlimbs, characterize this response. The responses were counted during the 15-minute time period after the injection of the kaolin. A mechanical counter or a personal computer was used to collect the number of counts per animal, and animals were observed no more than 5 at a time.
The mean number of counts (±SEM) for a group of animals receiving a known analgesic or test compound was compared to the mean for the group of animals which received only vehicle pretreatment (Control group). For each dose, % inhibition of the response was calculated. For each test compound, the EDso value was calculated using a log dose regression analysis program (PharmTools software).

[3] = biological target: T2, CHO-hB2 cell membranes (Homo sapiens, UniProt P30411); experiment: [35S]GTPγS Binding Assay in CHO-hB2 Cell Membranes; assay type: biochemical
T2 construct: purchased Receptor Biology, Inc. (Baltimore, MD); host or cells: CHO-hB2 cells (membranes)
T2 sequence (P30411 1-391): T1 sequence (P30411 1-391)
Procedure: CHO-hB2 cell membranes were purchased from Receptor Biology, Inc. (Baltimore,MD). 10 mg/mL of membrane protein was suspended in 10 mM TRIS-HC pH 7.2, 2 mM EDTA, 10% sucrose.
Membranes were added into 15 mL ice cold binding assay buffer. The assay buffer contained 50 mM HEPES, pH 7.6, 5 mM MgCl2, 100 mM NaCl, 1 mM DTT and 1 mM EDTA. The membrane suspension was homogenized twice with a Polytron and centrifuged at 3000 rpm for 10 min. The supernatant was then centrifuged at 18,000 rpm for 20 min. The pellet was saved in a tube and resuspended.
The pellet membranes (40 µg/mL) were preincubated with SPA (scintillation proximity assay) beads (20 mg/mL) at 25C° for 45 min in the assay buffer. The SPA beads (5 mg/mL) coupled with membranes (10 µg/mL) were then incubated with 0.5 nM [^35S]GTPγS in the same HEPES buffer containing 50 µM GDP in total volume of 200 µL. Bradykinin was used to stimulate [^35S]GTPγS binding. Varying concentrations of drugs were incubated with bradykinin to inhibit bradykinin-stimulated [^35S]GTPγS binding. The basal binding was tested in the absence of bradykinin and no specific binding was tested in the present 10 µM unlabeled GTPγS. The radioactivity was quantified on a Packard Top Count, and calculated. % of Basal = (stimulated binding-non specific binding)/(basal binding-non specific binding) × 100. [formula]

[4] = membranes of CHO-K1 cells transfected with human B2 bradykinin receptors, ~0.25 nM [3H]NPC17731, 60 min at 25°C
[5] = number in parentheses, bradykinin-stimulated [35S]GTPγS binding, test concentration not given
[6] = word part of the cell, effect on bradykinin-stimulated [35S]GTPγS binding

Row | Compound | Ki [1, 4] [nM] | % Inhibition ([2]; po) | ED50 ([2]; po) [µmol/kg] | Functional Activity (% Basal) [3, 5] [% Basal] | Functional Activity [3, 6] | % Inhibition ([2]; sc) [%] | Ki [1] [nM] | Functional Activity [3] | Functional Activity (% Basal) [3]
1 | Cc1ccc2cccc(OCc3c(C)ccc(N(C)C(=O)Cc4ccc(C(=O)c5ccc(C#N)cc5)n4C)c3C)c2n1 [Compound 79, 2-[5-(4-Cyano-benzoyl)-1-methyl-1H-pyrrol-2-yl]-N-[2,4-dimethyl-3-(2-methyl-quinolin-8-yloxymethyl)-phenyl]-N-methyl-acetamide] | 69 | 68 po % | 61.3 | 100 | Antagonist | – | – | – | –
2 | CCN(C(=O)Cc1ccc(C(=O)c2ccc(C#N)cc2)n1C)c1ccc(C)c(COc2cccc3ccc(C)nc23)c1C [Compound 16] | 132 | 46% | – | 1 | No effect | 58 | – | – | –
3 | CC(=O)Nc1ccc(C(=O)c2ccc(CC(=O)N(C)c3ccc(Cl)c(COc4cccc5ccc(C)nc45)c3Cl)n2C)cc1 [Compound 74, 2-[5-(4-Acetylamino-benzoyl)-1-methyl-1 H-pyrrol-2-yl]-N-[2,4-dichloro-3-(2-methyl-quinolin-8-yloxymethyl)-phenyl]-N-methyl-acetamide] | 68 | -6% | – | 33 | Antagonist | 88 | – | – | –
4 | Cc1ccc2cccc(OCc3c(C)ccc(N(C)C(=O)Cc4ccc(C(=O)c5ccc(Cl)nc5)n4C)c3C)c2n1 [Compound 77] | 306 | 70 po % | 80.9 | 62 | Antagonist | – | – | – | –
5 | Cc1ccc2cccc(OCc3c(Cl)ccc(N(C)C(=O)CCc4ccc(C(=O)c5ccc(Cl)nc5)n4C)c3Cl)c2n1 [Compound 89] | 57 | 98po % | 22.5 | 51 | Antagonist | – | – | – | –
6 | Cc1ccc2cccc(OCc3c(C)ccc(N(C)C(=O)CCc4ccc(C(=O)c5ccc(C#N)cc5)n4C)c3C)c2n1 [Compound 90] | 46 | 45% | – | 50 | Antagonist | 100 | – | – | –
7 | Cc1ccc2cccc(OCc3c(Cl)ccc(N(C)C(=O)CCc4ccc(C(=O)c5ccc(C#N)cc5)n4C)c3Cl)c2n1 [Compound 91] | – | 23% | – | – | – | 97.4 | 15 | Antagonist (58) | Antagonist (58) % Basal
8 | CCN(C(=O)Cc1ccc(C(=O)c2ccc(Cl)nc2)n1C)c1ccc(Cl)c(COc2cccc3ccc(C)nc23)c1Cl [Compound 17] | 342 | -1% | – | 1 | No effect | 47 | – | – | –
9 | Cc1ccc2cccc(OCc3c(Cl)ccc(N(C)C(=O)Cc4ccc(C(=O)c5ccc(S(C)(=O)=O)cc5)n4C)c3Cl)c2n1 [Compound 75, N-[2,4-Dichloro-3-(2-methyl-quinolin-8-yloxymethyl)-phenyl]-2-[5-(4-methanesulfonyl-benzoyl)-1-methyl-1 H-pyrrol-2-yl]-N-methyl-acetamide] | 47 | 50% | – | 73 | Antagonist | 93.3 | – | – | –
10 | CCn1c(CC(=O)N(C)c2ccc(Cl)c(COc3cccc4ccc(C)nc34)c2Cl)ccc1C(=O)c1ccc(C#N)cc1 [Compound 8] | 13 | -11% | – | 40 | Antagonist | 44 | – | – | –
11 | Cc1ccc2cccc(OCc3c(Cl)ccc(N(C)C(=O)Cc4ccc(C(=O)c5ccc(Cl)nc5)n4C)c3Cl)c2n1 [Compound 67, 2-[5-(6-Chloro-pyridine-3-carbonyl)-1-methyl-1H-pyrrol-2-yl]-N-[2,4-dichloro-3-(2-methyl-quinolin-8-yloxymethyl)-phenyl]-N-methyl-acetamide] | 194 | 78% | 68.8 | 55 | Antagonist | 100 | – | – | –
